The text below walks through data of paper PMC4045772, “Structure of the BTB Domain of Keap1 and Its Interaction with the Triterpenoid Antagonist CDDO” (PLoS ONE, 2014).

SMILES strings stand for the structures.

Usually IC50 stands for the point on the concentration scale where inhibition reaches its midpoint.

For this experiment, the target named is T1, Keap1 (Homo sapiens, UniProt Q14145).
T1 construct: BTB plus part of BACK domain, residues 35-235, uncleaved N-terminal His-tag, E. coli BL21(DE3); AlphaScreen displacement of Cul3 (Cul3/Rbx1)
T1 sequence (P62877 whole entry, the tested form may be a part): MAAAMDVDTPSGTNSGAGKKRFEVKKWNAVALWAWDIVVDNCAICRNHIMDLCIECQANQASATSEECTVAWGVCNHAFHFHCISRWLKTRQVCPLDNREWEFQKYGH
T1 sequence (Q14145 35-235): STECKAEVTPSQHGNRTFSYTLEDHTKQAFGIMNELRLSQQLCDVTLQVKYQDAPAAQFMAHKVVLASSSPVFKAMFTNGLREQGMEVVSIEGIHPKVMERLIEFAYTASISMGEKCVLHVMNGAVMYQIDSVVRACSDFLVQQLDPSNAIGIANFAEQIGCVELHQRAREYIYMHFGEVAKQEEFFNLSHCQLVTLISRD
T1 sequence (Q13618 2-768, further chain): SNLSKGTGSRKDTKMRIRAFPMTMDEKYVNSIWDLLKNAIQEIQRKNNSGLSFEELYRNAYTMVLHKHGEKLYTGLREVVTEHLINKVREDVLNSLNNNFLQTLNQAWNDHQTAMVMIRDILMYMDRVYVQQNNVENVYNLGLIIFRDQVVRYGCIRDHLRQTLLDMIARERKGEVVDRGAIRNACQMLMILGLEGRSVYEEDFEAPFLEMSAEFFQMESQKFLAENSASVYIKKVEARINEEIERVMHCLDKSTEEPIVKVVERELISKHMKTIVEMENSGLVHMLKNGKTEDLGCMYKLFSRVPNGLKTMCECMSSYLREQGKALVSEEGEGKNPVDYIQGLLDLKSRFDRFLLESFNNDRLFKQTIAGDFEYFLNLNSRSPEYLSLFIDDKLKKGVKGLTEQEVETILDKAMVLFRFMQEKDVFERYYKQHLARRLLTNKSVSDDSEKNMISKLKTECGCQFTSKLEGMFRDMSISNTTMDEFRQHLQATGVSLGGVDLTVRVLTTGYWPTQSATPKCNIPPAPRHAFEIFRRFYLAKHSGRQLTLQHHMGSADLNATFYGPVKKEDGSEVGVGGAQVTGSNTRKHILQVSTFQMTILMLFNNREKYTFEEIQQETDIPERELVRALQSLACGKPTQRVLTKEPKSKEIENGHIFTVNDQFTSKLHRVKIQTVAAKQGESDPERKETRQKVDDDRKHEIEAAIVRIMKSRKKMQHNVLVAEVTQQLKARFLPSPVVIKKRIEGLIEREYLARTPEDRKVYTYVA
The experiment in a line: X-ray co-crystal structure ([…] Å) of the covalent complex; AlphaScreen inhibition of Cul3 binding with purified Keap1 […]. A general note: Alpha assays give light when donor and acceptor beads are brought close together.

For the molecule `CC1(C)CC[C@]2(C(=O)O)CC[C@]3(C)[C@H](C(=O)C=C4[C@@]5(C)C=C(C#N)C(=O)C(C)(C)[C@@H]5CC[C@]43C)[C@@H]2C1` [CDDO, 2-cyano-3,12-dioxooleana-1,9-dien-28-oic-acid], the IC50 is below 100 nM.
